Test system: HCV genotype-1a variant with glutamine 30 changed to glutamate in the NS5A protein
Format: cell-based
Settings: test compound titrated with BMS-790052 fixed at 200 nM; genotype 1a Q30E replicon
Procedure, shortened: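 Synergy was assessed by combining several fixed amounts of an NS5A-targeting compound with a titration of the second compound of interest.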

Row | Compound | Fold-Synergistic 1a (Q30E) [fold]
1 | CC(C)(C(=O)N[C@H](c1nc(-c2ccc(-c3ccc(-c4cnc([C@@H](NC(=O)C(C)(C)C5CCOC5)C(C)(C)C)[nH]4)cc3)cc2)c[nH]1)C(C)(C)C)C1CCOC1 (stereo partly drawn) [Compound B-168] | >100
2 | CC(C)(C)[C@H](NC(=O)c1cccc(B(O)O)c1)c1nc(-c2ccc(-c3ccc(-c4cnc([C@@H](NC(=O)c5cccc(B(O)O)c5)C(C)(C)C)[nH]4)cc3)cc2)c[nH]1 [Compound B-178] | >10
3 | CC(C)(C)[C@H](NC(=O)C(C)(C)S(C)(=O)=O)c1nc(-c2ccc(-c3ccc(-c4cnc([C@@H](NC(=O)C(C)(C)S(C)(=O)=O)C(C)(C)C)[nH]4)cc3)cc2)c[nH]1 [Compound B-180] | >100
4 | CC(C)(C)[C@H](NC(=O)CS(C)(=O)=O)c1nc(-c2ccc(-c3ccc(-c4cnc([C@@H](NC(=O)CS(C)(=O)=O)C(C)(C)C)[nH]4)cc3)cc2)c[nH]1 [Compound B-181] | >10
5 | CC(C)S(=O)(=O)CC(=O)N[C@H](c1nc(-c2ccc(-c3ccc(-c4cnc([C@@H](NC(=O)CS(=O)(=O)C(C)C)C(C)(C)C)[nH]4)cc3)cc2)c[nH]1)C(C)(C)C [Compound B-182] | >100
6 | CC(C)(C)[C@H](NC(=O)C1CC12CCC2)c1nc(-c2ccc(-c3ccc(-c4cnc([C@@H](NC(=O)C5CC56CCC6)C(C)(C)C)[nH]4)cc3)cc2)c[nH]1 (stereo partly drawn) [Compound B-183] | >100
7 | CC(C)(C)[C@H](NC(=O)[C@@]1(C)CCC(F)(F)CO1)c1ncc(-c2ccc(C34CCC(c5cnc([C@@H](NC(=O)[C@@]6(C)CCC(F)(F)CO6)C(C)(C)C)[nH]5)(CC3)CC4)cc2)[nH]1 [Compound B-186, (R)—N—((S)-1-(5-(4-(4-(2-((S)-1-((R)-5,5-difluoro-2-methyltetrahydro-2H-pyran-2-carboxamido)-2,2-dimethylpropyl)-1H-imidazol-5-yl)bicyclo[2.2.2]octan-1-yl)phenyl)-1H-imidazol-2-yl)-2,2-dimethylpropyl)-5,5-difluoro-2-methyltetrahydro-2H-pyran-2-carboxamide] | >100
8 | CC(C)(C)[C@H](NC(=O)[C@@]1(C)CCC(F)(F)CO1)c1ncc(-c2ccc([C@H]3C[C@@H]3c3ccc(-c4cnc([C@@H](NC(=O)[C@@]5(C)CCC(F)(F)CO5)C(C)(C)C)[nH]4)cc3)cc2)[nH]1 [Compound B-187] | >100
9 | CC(C)(C)[C@H](NC(=O)C1CCC(F)(F)CC1)c1ncc(-c2ccc([C@@H]3C[C@H]3c3ccc(-c4cnc([C@@H](NC(=O)C5CCC(F)(F)CC5)C(C)(C)C)[nH]4)cc3)cc2)[nH]1 [Compound B-190] | >100
10 | COC(=O)N[C@H](C(=O)N1CCC[C@H]1c1ncc(-c2ccc(-c3ccc(-c4cnc([C@@H](NC(=O)[C@@H]5CCCN5C(=O)OC(C)(C)C)C(C)(C)C)[nH]4)cc3)cc2)[nH]1)C(C)C [Compound B-191] | >10
11 | COC(=O)NC(C(=O)N1CCCC1c1ncc(-c2ccc(-c3ccc(-c4cnc(C(NC(=O)C5CCC(F)(F)CC5)C(C)(C)C)[nH]4)cc3)cc2)[nH]1)C(C)C (stereo not drawn) [Compound B-192] | >10
12 | COC(=O)NC(C(=O)N1CCCC1c1ncc(-c2ccc(-c3ccc(-c4cnc(C(NC(=O)C5(C)CCC(F)(F)CO5)C(C)(C)C)[nH]4)cc3)cc2)[nH]1)C(C)C (stereo not drawn) [Compound B-193] | >10
13 | COC(=O)NC(C(=O)NC(c1ncc(-c2ccc(-c3ccc(-c4cnc(C5CCCN5C(=O)C(NC(=O)OC)C(C)C)[nH]4)cc3)cc2)[nH]1)C(C)(C)C)C(C)C (stereo not drawn) [Compound B-194] | <10
14 | COC(=O)NC(C(=O)N1CCCC1c1ncc(-c2ccc(-c3ccc(-c4cnc(C(NC(=O)C(C)(C)C)C(C)(C)C)[nH]4)cc3)cc2)[nH]1)C(C)C (stereo not drawn) [Compound B-195] | >10
15 | COC(=O)NC(C(=O)NC(c1ncc(-c2ccc(-c3ccc(-c4cnc(C5CCCN5C(=O)C(NC(=O)OC)C(C)C)[nH]4)cc3)cc2)[nH]1)C(C)(C)C)C(C)C (stereo not drawn) [Compound B-196] | >10
16 | CC(C)[C@H](NC(=O)C1CCC(F)(F)CC1)c1ncc(-c2ccc(-c3ccc(-c4cnc([C@@H](NC(=O)C5CCC(F)(F)CC5)C(C)C)n4C)cc3)cc2)n1C [Compound B-200] | <10
17 | CC(C)C(NC(=O)C1(C)CCC(F)(F)CO1)c1ncc(-c2ccc(-c3ccc(-c4cnc(C(NC(=O)C5(C)CCC(F)(F)CO5)C(C)C)n4C)cc3)cc2)n1C (stereo not drawn) [Compound B-201] | >10
18 | CC(C)[C@H](NC(=O)C(C)(C)C)c1ncc(-c2ccc(-c3ccc(-c4cnc([C@@H](NC(=O)C(C)(C)C)C(C)C)n4C)cc3)cc2)n1C [Compound B-205] | <10
19 | CN(C(=O)C1CCC(F)(F)CC1)[C@H](c1ncc(-c2ccc(-c3ccc(-c4cnc([C@@H](N(C)C(=O)C5CCC(F)(F)CC5)C(C)(C)C)[nH]4)cc3)cc2)[nH]1)C(C)(C)C [Compound B-206] | <10
20 | CN(C(=O)C(C)(C)C)[C@H](c1ncc(-c2ccc(-c3ccc(-c4cnc([C@@H](N(C)C(=O)C(C)(C)C)C(C)(C)C)[nH]4)cc3)cc2)[nH]1)C(C)(C)C [Compound B-207] | <10
21 | CC(C)(C)CN[C@H](c1nc(-c2ccc(-c3ccc(-c4c[nH]c([C@@H](NCC(C)(C)C)C(C)(C)C)n4)cc3)cc2)c[nH]1)C(C)(C)C [Compound L-1] | >100
22 | CC(C)(C)[C@H](NCC1CCCCC1)c1nc(-c2ccc(-c3ccc(-c4c[nH]c([C@@H](NCC5CCCCC5)C(C)(C)C)n4)cc3)cc2)c[nH]1.O=C(O)C(F)(F)F [Compound L-2] | >100
23 | CC(C)(C)OC(=O)NC(C)(C)C(=O)N[C@H](c1nc(-c2ccc(-c3ccc(-c4c[nH]c([C@@H](NC(=O)C(C)(C)NC(=O)OC(C)(C)C)C(C)(C)C)n4)cc3)cc2)c[nH]1)C(C)(C)C [Compound L-3] | >100
24 | CC(C)(C)OC(=O)NC1(C(=O)N[C@H](c2nc(-c3ccc(-c4ccc(-c5c[nH]c([C@@H](NC(=O)C6(NC(=O)OC(C)(C)C)CCC6)C(C)(C)C)n5)cc4)cc3)c[nH]2)C(C)(C)C)CCC1.O=C(O)C(F)(F)F.O=C(O)C(F)(F)F [Compound L-5] | >100
25 | CC(C)(C)OC(=O)NC1(C(=O)N[C@H](c2nc(-c3ccc(-c4ccc(-c5c[nH]c([C@@H](NC(=O)C6(NC(=O)OC(C)(C)C)CCCC6)C(C)(C)C)n5)cc4)cc3)c[nH]2)C(C)(C)C)CCCC1.O=C(O)C(F)(F)F.O=C(O)C(F)(F)F [Compound L-6] | >100
26 | CC(C)(C)OC(=O)NC1(C(=O)N[C@H](c2nc(-c3ccc(-c4ccc(-c5c[nH]c([C@@H](NC(=O)C6(NC(=O)OC(C)(C)C)CCCCC6)C(C)(C)C)n5)cc4)cc3)c[nH]2)C(C)(C)C)CCCCC1.O=C(O)C(F)(F)F.O=C(O)C(F)(F)F [Compound L-7] | >100
27 | CN(C(=O)OC(C)(C)C)C(C)(C)C(=O)N[C@H](c1nc(-c2ccc(-c3ccc(-c4c[nH]c([C@@H](NC(=O)C(C)(C)N(C)C(=O)OC(C)(C)C)C(C)(C)C)n4)cc3)cc2)c[nH]1)C(C)(C)C.O=C(O)C(F)(F)F.O=C(O)C(F)(F)F [Compound L-8] | >100

From patent US20160158200A1, “Combinations of Hepatitis C Virus Inhibitors” (priority 2013, published 2016)
